According to patent publication US20100298141A1, “SUBSTITUTED PYRIDINE N-OXIDE HERBICIDES” (E. I. DU PONT DE NEMOURS AND COMPANY, priority 2007, published 2010):

Columns and labels:
[1] = system: redroot pigweed; assay: Test A pre-/postemergence greenhouse test; format: in vivo, Amaranthus retroflexus; details: for Plant response rating, Pigweed: 0 to 100 scale where 0 is no effect and 100 is complete control; for Pigweed plant response rating: 0 to 100 scale
How it was run: (§1)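 Untreated controls served as the reference for visual injury ratings taken about ten days after spraying. The non-phytotoxic solvent/surfactant formulation was applied preemergence to seeded loam and sand and postemergence to plants two to ten cm high.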

[2] = system: wild oat; assay: Test C pre-/postemergence test; format: in vivo, Avena fatua; details: for Plant response rating, Oat, Wild: 31 g ai/ha, scale 0 to 100 (0 no effect, 100 complete control)
How it was run: (§2)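 Compounds in a non-phytotoxic solvent with surfactant applied preemergence to seeded pots and, at the same time, postemergence to plants 2–18 cm tall (1- to 4-leaf stage). Paddy tests: pots flooded to 3 cm, compound applied into the water, depth held throughout.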

[3] = system: giant foxtail; assay: Test C pre-/postemergence test; format: in vivo, Setaria faberii; details: for Plant response rating, Foxtail, Giant: 31 g ai/ha, scale 0 to 100 (0 no effect, 100 complete control)
How it was run: as §2

[4] = system: johnsongrass; assay: Test C pre-/postemergence test; format: in vivo, Sorghum halepense; details: for Plant response rating, Johnsongrass: 31 g ai/ha, scale 0 to 100 (0 no effect, 100 complete control)
How it was run: as §2

[5] = system: corn; assay: Test A pre-/postemergence greenhouse test; format: in vivo, Zea mays; details: for Plant response rating, Corn: 0 to 100 scale where 0 is no effect and 100 is complete control; for Corn plant response rating: 0 to 100 scale
How it was run: as §1

[6] = system: morningglory; assay: Test C pre-/postemergence test; format: in vivo, Ipomoea coccinea; details: for Plant response rating, Morningglory: 31 g ai/ha, scale 0 to 100 (0 no effect, 100 complete control)
How it was run: as §2

[7] = system: cocklebur; assay: Test C pre-/postemergence test; format: in vivo, Xanthium strumarium; details: for Plant response rating, Cocklebur: 31 g ai/ha, scale 0 to 100 (0 no effect, 100 complete control)
How it was run: as §2

[8] = system: wheat; assay: Test C pre-/postemergence test; format: in vivo, Triticum aestivum; details: for Plant response rating, Wheat: 31 g ai/ha, scale 0 to 100 (0 no effect, 100 complete control)
How it was run: as §2

[9] = system: rice; assay: Test C flooded paddy test; format: in vivo, Oryza sativa; details: Flood
How it was run: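 Ratings were visual and made relative to untreated controls after 13 to 15 greenhouse days.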

[10] = system: morningglory; assay: Test A pre-/postemergence greenhouse test; format: in vivo, Ipomoea spp.; details: for Plant response rating, Morningglory: 0 to 100 scale where 0 is no effect and 100 is complete control; for Morningglory plant response rating: 0 to 100 scale
How it was run: as §1

[11] = system: kochia; assay: Test C pre-/postemergence test; format: in vivo, Kochia scoparia; details: for Plant response rating, Kochia: 31 g ai/ha, scale 0 to 100 (0 no effect, 100 complete control)
How it was run: as §2

[12] = system: corn; assay: Test C pre-/postemergence test; format: in vivo, Zea mays; details: for Plant response rating, Corn: 31 g ai/ha, scale 0 to 100 (0 no effect, 100 complete control)
How it was run: as §2

[13] = system: common (oilseed) sunflower; assay: Test C pre-/postemergence test; format: in vivo, Helianthus annuus
How it was run: as §2

[14] = system: eastern black nightshade; assay: Test C pre-/postemergence test; format: in vivo, Solanum ptycanthum; details: for Plant response rating, Nightshade: 31 g ai/ha, scale 0 to 100 (0 no effect, 100 complete control)
How it was run: as §2

[15] = system: yellow nutsedge; assay: Test C pre-/postemergence test; format: in vivo, Cyperus esculentus; details: for Plant response rating, Nutsedge, Yellow: 31 g ai/ha, scale 0 to 100 (0 no effect, 100 complete control)
How it was run: as §2

[16] = system: bermudagrass; assay: Test C pre-/postemergence test; format: in vivo, Cynodon dactylon; details: for Plant response rating, Bermudagrass: 31 g ai/ha
How it was run: as §2

[17] = system: Italian ryegrass; assay: Test C pre-/postemergence test; format: in vivo, Lolium multiflorum; details: for Plant response rating, Ryegrass, Italian: 31 g ai/ha, scale 0 to 100 (0 no effect, 100 complete control)
How it was run: as §2

[18] = Postemergence, 500 g ai/ha, 0 is no effect, 100 is complete control
[19] = Preemergence, 125 g ai/ha, 0 no effect, 100 complete control
[20] = Preemergence, 500 g ai/ha, 0 no effect, 100 complete control
[21] = 62 g ai/ha, Preemergence, scale 0 to 100
[22] = 125 g ai/ha, preemergence, scale 0 (no effect) to 100 (complete control)
[23] = preemergence, 250 g ai/ha, scale 0 (no effect) to 100 (complete control)
[24] = 62 g ai/ha, scale 0 to 100 (0 no effect, 100 complete control)
[25] = 250 g ai/ha, scale 0 to 100, 0 no effect, 100 complete control, 13 to 15 days
[26] = 62 g ai/ha, Preemergence, scale 0 to 100 (0 no effect, 100 complete control)
[27] = Preemergence, scale 0 to 100 (0 no effect, 100 complete control)

CCc1cc[n+]([O-])c([S+]([O-])Cc2c(C(F)(F)F)nn(C)c2OC(F)F)c1 (stereo not shown) [Compound 101]
Plant response rating, Pigweed ([1]; Postemergence, 125 g ai/ha): 70
Pigweed plant response rating [1, 18]: 90
Pigweed plant response rating [1, 19]: 100
Pigweed plant response rating [1, 20]: 100
Oat, Wild plant response rating [2, 21]: 90
Oat, Wild plant response rating [2, 22]: 90
Plant response rating, Oat, Wild ([2]; Preemergence): 50
Oat, Wild plant response rating [2, 23]: 98
Foxtail, Giant plant response rating [3, 21]: 80
Foxtail, Giant plant response rating [3, 22]: 95
Plant response rating, Foxtail, Giant ([3]; Preemergence): 70
Foxtail, Giant plant response rating [3, 23]: 98
Johnsongrass plant response rating [4, 21]: 85
Johnsongrass plant response rating [4, 22]: 95
Plant response rating, Johnsongrass ([4]; Preemergence): 70
Johnsongrass plant response rating [4, 23]: 100
Plant response rating, Corn ([5]; Postemergence, 125 g ai/ha): 60
Corn plant response rating [5, 18]: 70
Corn plant response rating [5, 19]: 50
Corn plant response rating [5, 20]: 90
Morningglory plant response rating [6, 21]: 60
Morningglory plant response rating [6, 22]: 100
Plant response rating, Morningglory ([6]; Preemergence): 20
Morningglory plant response rating [6, 23]: 100
Cocklebur plant response rating [7, 21]: 0
Cocklebur plant response rating [7, 22]: 10
Plant response rating, Cocklebur ([7]; Preemergence): 0
Cocklebur plant response rating [7, 23]: 15
Wheat plant response rating [8, 21]: 65
Wheat plant response rating [8, 22]: 85
Plant response rating, Wheat ([8]; Preemergence): 50
Wheat plant response rating [8, 23]: 95
Plant response rating, Rice [9, 24]: 0
Plant response rating, Rice [9, 25]: 75
Plant response rating, Morningglory ([10]; Postemergence, 125 g ai/ha): 70
Morningglory plant response rating [10, 18]: 100
Morningglory plant response rating [10, 19]: 80
Morningglory plant response rating [10, 20]: 100
Kochia plant response rating [11, 21]: 30
Kochia plant response rating [11, 22]: 85
Plant response rating, Kochia ([11]; Preemergence): 0
Kochia plant response rating [11, 23]: 100
Corn plant response rating [12, 21]: 75
Corn plant response rating [12, 22]: 90
Plant response rating, Corn ([12]; Preemergence): 40
Corn plant response rating [12, 23]: 98
Sunflower plant response rating [13, 21]: 0
Sunflower plant response rating [13, 22]: 5
Plant response rating, Sunflower ([13]; Preemergence, 31 g ai/ha, scale 0 to 100 (0 no effect, 100 complete control)): 0
Sunflower plant response rating [13, 23]: 60
Nightshade plant response rating [14, 21]: 80
Nightshade plant response rating [14, 22]: 95
Plant response rating, Nightshade ([14]; Preemergence): 10
Nightshade plant response rating [14, 23]: 100
Nutsedge, Yellow plant response rating [15, 21]: 20
Nutsedge, Yellow plant response rating [15, 22]: 60
Plant response rating, Nutsedge, Yellow ([15]; Preemergence): 0
Nutsedge, Yellow plant response rating [15, 23]: 100
Bermudagrass plant response rating [16, 26]: 85
Bermudagrass plant response rating [16, 22]: 100
Plant response rating, Bermudagrass [16, 27]: 55
Bermudagrass plant response rating [16, 23]: 100
Ryegrass, Italian plant response rating [17, 22]: 0
Plant response rating, Ryegrass, Italian ([17]; Preemergence): 0
Ryegrass, Italian plant response rating [17, 23]: 60

CCc1cc[n+]([O-])c(S(=O)(=O)Cc2c(C(F)(F)F)nn(C)c2OC(F)F)c1 [Compound 102]
Plant response rating, Pigweed ([1]; Postemergence, 125 g ai/ha): 70
Pigweed plant response rating [1, 18]: 100
Pigweed plant response rating [1, 19]: 100
Pigweed plant response rating [1, 20]: 100
Oat, Wild plant response rating [2, 21]: 70
Oat, Wild plant response rating [2, 22]: 90
Plant response rating, Oat, Wild ([2]; Preemergence): 35
Oat, Wild plant response rating [2, 23]: 95
Foxtail, Giant plant response rating [3, 21]: 70
Foxtail, Giant plant response rating [3, 22]: 85
Plant response rating, Foxtail, Giant ([3]; Preemergence): 60
Foxtail, Giant plant response rating [3, 23]: 85
Johnsongrass plant response rating [4, 21]: 100
Johnsongrass plant response rating [4, 22]: 100
Plant response rating, Johnsongrass ([4]; Preemergence): 70
Johnsongrass plant response rating [4, 23]: 100
Plant response rating, Corn ([5]; Postemergence, 125 g ai/ha): 40
Corn plant response rating [5, 18]: 50
Corn plant response rating [5, 19]: 0
Corn plant response rating [5, 20]: 0
Morningglory plant response rating [6, 21]: 85
Morningglory plant response rating [6, 22]: 100
Plant response rating, Morningglory ([6]; Preemergence): 65
Morningglory plant response rating [6, 23]: 100
Cocklebur plant response rating [7, 21]: 0
Cocklebur plant response rating [7, 22]: 0
Plant response rating, Cocklebur ([7]; Preemergence): 0
Cocklebur plant response rating [7, 23]: 0
Wheat plant response rating [8, 21]: 0
Wheat plant response rating [8, 22]: 40
Plant response rating, Wheat ([8]; Preemergence): 0
Wheat plant response rating [8, 23]: 90
Plant response rating, Rice [9, 24]: 0
Plant response rating, Rice [9, 25]: 20
Plant response rating, Morningglory ([10]; Postemergence, 125 g ai/ha): 50
Morningglory plant response rating [10, 18]: 100
Morningglory plant response rating [10, 19]: 100
Morningglory plant response rating [10, 20]: 100
Kochia plant response rating [11, 21]: 70
Kochia plant response rating [11, 22]: 100
Plant response rating, Kochia ([11]; Preemergence): 70
Kochia plant response rating [11, 23]: 100
Corn plant response rating [12, 21]: 0
Corn plant response rating [12, 22]: 0
Plant response rating, Corn ([12]; Preemergence): 0
Corn plant response rating [12, 23]: 0
Sunflower plant response rating [13, 21]: 0
Sunflower plant response rating [13, 22]: 60
Sunflower plant response rating [13, 23]: 80
Nightshade plant response rating [14, 21]: 90
Nightshade plant response rating [14, 22]: 95
Plant response rating, Nightshade ([14]; Preemergence): 85
Nightshade plant response rating [14, 23]: 98
Nutsedge, Yellow plant response rating [15, 21]: 50
Nutsedge, Yellow plant response rating [15, 22]: 50
Plant response rating, Nutsedge, Yellow ([15]; Preemergence): 0
Nutsedge, Yellow plant response rating [15, 23]: 85
Bermudagrass plant response rating [16, 26]: 85
Bermudagrass plant response rating [16, 22]: 100
Plant response rating, Bermudagrass [16, 27]: 85
Bermudagrass plant response rating [16, 23]: 100
Ryegrass, Italian plant response rating [17, 21]: 0
Ryegrass, Italian plant response rating [17, 22]: 0
Plant response rating, Ryegrass, Italian ([17]; Preemergence): 0
Ryegrass, Italian plant response rating [17, 23]: 20
